{
  "source": "ChEMBL document CHEMBL1201862",
  "about": "“PubChem BioAssay data set” (2004)",
  "test_in_all_cases": "NCI tumour cell line growth inhibition, 48 h",
  "key": {"[1]": {"system": "786-0"}, "[2]": {"system": "A498"}, "[3]": {"system": "A549"}, "[4]": {"system": "ACHN"}, "[5]": {"system": "BT-549"}, "[6]": {"system": "CAKI-1"}, "[7]": {"system": "CCRF-CEM"}, "[8]": {"system": "COLO 205"}, "[9]": {"system": "DLD-1"}, "[10]": {"system": "DMS-114"}, "[11]": {"system": "DMS-273"}, "[12]": {"system": "DU-145"}, "[13]": {"system": "EKVX"}, "[14]": {"system": "HCC 2998"}, "[15]": {"system": "HCT-116"}, "[16]": {"system": "HCT-15"}, "[17]": {"system": "HL-60"}, "[18]": {"system": "HOP-18"}, "[19]": {"system": "HOP-62"}, "[20]": {"system": "HOP-92"}, "[21]": {"system": "HT-29"}, "[22]": {"system": "Hs-578T"}, "[23]": {"system": "IGROV-1"}, "[24]": {"system": "K562"}, "[25]": {"system": "KM-20L2"}, "[26]": {"system": "KM12"}, "[27]": {"system": "LOX IMVI"}, "[28]": {"system": "LXFL 529"}, "[29]": {"system": "M14"}, "[30]": {"system": "M19-MEL"}, "[31]": {"system": "MCF7"}, "[32]": {"system": "MDA-MB-231"}, "[33]": {"system": "MDA-MB-435"}, "[34]": {"system": "MDA-N"}, "[35]": {"system": "MOLT-4"}, "[36]": {"system": "Malme-3M"}, "[37]": {"system": "NCI-H226"}, "[38]": {"system": "NCI-H23"}, "[39]": {"system": "NCI-H460"}, "[40]": {"system": "NCI-H522"}, "[41]": {"system": "OVCAR-3"}, "[42]": {"system": "OVCAR-4"}, "[43]": {"system": "OVCAR-5"}, "[44]": {"system": "OVCAR-8"}, "[45]": {"system": "PC-3"}, "[46]": {"system": "RPMI-8226"}, "[47]": {"system": "RXF 393"}, "[48]": {"system": "RXF 631"}, "[49]": {"system": "SF-268"}, "[50]": {"system": "SF-295"}, "[51]": {"system": "SF-539"}, "[52]": {"system": "SK-MEL-28"}, "[53]": {"system": "SK-MEL-2"}, "[54]": {"system": "SK-MEL-5"}, "[55]": {"system": "SK-OV-3"}, "[56]": {"system": "SN12C"}, "[57]": {"system": "SNB-19"}, "[58]": {"system": "SNB-75"}, "[59]": {"system": "SNB-78"}, "[60]": {"system": "SR"}, "[61]": {"system": "SW-620"}, "[62]": {"system": "T47D"}, "[63]": {"system": "TK-10"}, "[64]": {"system": "U-251"}, "[65]": {"system": "UACC-257"}, "[66]": {"system": "UACC-62"}, "[67]": {"system": "UO-31"}, "[68]": {"system": "XF498"}},
  "note": "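Results reflect a 48-hour exposure of cells in 96-well plates to compound at five concentrations. At the GI50, growth is halved.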 Active and inactive are the calls of the source. Cut-off read from the data, not from the text of the source: active = GI50 up to about 1.1 µM and inactive = higher.",
  "data": [
    {"smiles": "COc1c(C=O)c2c(c(OC)c1OC)-c1ccc(OC)c(=O)cc1[C@@H](NC(C)=O)CC2", "values": [
      {"measurement": "GI50", "setting": "[1]", "value": "132 nM (active)"},
      {"measurement": "GI50", "setting": "[2]", "value": "347 nM (active)"},
      {"measurement": "GI50", "setting": "[3]", "value": "437 nM (active)"},
      {"measurement": "GI50", "setting": "[4]", "value": "1170 nM (inactive)"},
      {"measurement": "GI50", "setting": "[5]", "value": "21100 nM (inactive)"},
      {"measurement": "GI50", "setting": "[6]", "value": "703 nM (active)"},
      {"measurement": "GI50", "setting": "[7]", "value": "< 12.8 nM (active)"},
      {"measurement": "GI50", "setting": "[8]", "value": "23.9 nM (active)"},
      {"measurement": "GI50", "setting": "[9]", "value": "61.4 nM (active)"},
      {"measurement": "GI50", "setting": "[10]", "value": "< 14.6 nM (active)"},
      {"measurement": "GI50", "setting": "[11]", "value": "29 nM (active)"},
      {"measurement": "GI50", "setting": "[12]", "value": "415 nM (active)"},
      {"measurement": "GI50", "setting": "[13]", "value": "47900 nM (inactive)"},
      {"measurement": "GI50", "setting": "[14]", "value": "63.7 nM (active)"},
      {"measurement": "GI50", "setting": "[15]", "value": "17.4 nM (active)"},
      {"measurement": "GI50", "setting": "[16]", "value": 849, "unit": "nM"},
      {"measurement": "GI50", "setting": "[17]", "value": "< 10 nM (active)"},
      {"measurement": "GI50", "setting": "[18]", "value": "21600 nM (inactive)"},
      {"measurement": "GI50", "setting": "[19]", "value": "360 nM (active)"},
      {"measurement": "GI50", "setting": "[20]", "value": "28.8 nM (active)"},
      {"measurement": "GI50", "setting": "[21]", "value": "25.5 nM (active)"},
      {"measurement": "GI50", "setting": "[22]", "value": "< 10 nM (active)"},
      {"measurement": "GI50", "setting": "[23]", "value": "46.1 nM (active)"},
      {"measurement": "GI50", "setting": "[24]", "value": "< 12.6 nM (active)"},
      {"measurement": "GI50", "setting": "[25]", "value": "36.4 nM (active)"},
      {"measurement": "GI50", "setting": "[26]", "value": "13.4 nM (active)"},
      {"measurement": "GI50", "setting": "[27]", "value": "15 nM (active)"},
      {"measurement": "GI50", "setting": "[28]", "value": "19.1 nM (active)"},
      {"measurement": "GI50", "setting": "[29]", "value": "51 nM (active)"},
      {"measurement": "GI50", "setting": "[30]", "value": "76.4 nM (active)"},
      {"measurement": "GI50", "setting": "[31]", "value": "< 10 nM (active)"},
      {"measurement": "GI50", "setting": "[32]", "value": "352 nM (active)"},
      {"measurement": "GI50", "setting": "[33]", "value": "< 10 nM (active)"},
      {"measurement": "GI50", "setting": "[34]", "value": "< 10 nM (active)"},
      {"measurement": "GI50", "setting": "[35]", "value": "< 10 nM (active)"},
      {"measurement": "GI50", "setting": "[36]", "value": "164 nM (active)"},
      {"measurement": "GI50", "setting": "[37]", "value": "583 nM (active)"},
      {"measurement": "GI50", "setting": "[38]", "value": "34 nM (active)"},
      {"measurement": "GI50", "setting": "[39]", "value": "77.1 nM (active)"},
      {"measurement": "GI50", "setting": "[40]", "value": "12.3 nM (active)"},
      {"measurement": "GI50", "setting": "[41]", "value": "32.7 nM (active)"},
      {"measurement": "GI50", "setting": "[42]", "value": "38900 nM (inactive)"},
      {"measurement": "GI50", "setting": "[43]", "value": "3780 nM (inactive)"},
      {"measurement": "GI50", "setting": "[44]", "value": "44.4 nM (active)"},
      {"measurement": "GI50", "setting": "[45]", "value": "37.5 nM (active)"},
      {"measurement": "GI50", "setting": "[46]", "value": "< 10 nM (active)"},
      {"measurement": "GI50", "setting": "[47]", "value": "148 nM (active)"},
      {"measurement": "GI50", "setting": "[48]", "value": "229 nM (active)"},
      {"measurement": "GI50", "setting": "[49]", "value": "44.4 nM (active)"},
      {"measurement": "GI50", "setting": "[50]", "value": "185 nM (active)"},
      {"measurement": "GI50", "setting": "[51]", "value": "23.7 nM (active)"},
      {"measurement": "GI50", "setting": "[52]", "value": "4080 nM (inactive)"},
      {"measurement": "GI50", "setting": "[53]", "value": "31.3 nM (active)"},
      {"measurement": "GI50", "setting": "[54]", "value": "24.1 nM (active)"},
      {"measurement": "GI50", "setting": "[55]", "value": "1200 nM (inactive)"},
      {"measurement": "GI50", "setting": "[56]", "value": "82.4 nM (active)"},
      {"measurement": "GI50", "setting": "[57]", "value": "144 nM (active)"},
      {"measurement": "GI50", "setting": "[58]", "value": "25.4 nM (active)"},
      {"measurement": "GI50", "setting": "[59]", "value": "< 14.7 nM (active)"},
      {"measurement": "GI50", "setting": "[60]", "value": "< 10 nM (active)"},
      {"measurement": "GI50", "setting": "[61]", "value": "14.8 nM (active)"},
      {"measurement": "GI50", "setting": "[62]", "value": "> 100000 nM (inactive)"},
      {"measurement": "GI50", "setting": "[63]", "value": "3830 nM (inactive)"},
      {"measurement": "GI50", "setting": "[64]", "value": "36.7 nM (active)"},
      {"measurement": "GI50", "setting": "[65]", "value": "82.6 nM (active)"},
      {"measurement": "GI50", "setting": "[66]", "value": "41.2 nM (active)"},
      {"measurement": "GI50", "setting": "[67]", "value": "11500 nM (inactive)"},
      {"measurement": "GI50", "setting": "[68]", "value": "77.3 nM (active)"}
    ]}
  ]
}
